# Measured values from patent US5349063A, “Pancreatic imaging agents” (priority 1993, dated 1994).
# Tests used:
# [1] = Human radiation dosimetry of I-123 ERC 9 estimated from tissue distribution in mice (MIRD); design: species or system human (from Balb/c mouse data); settings: MIRD calculation from mouse tissue distribution
# Description: The human radiation dose from I-123 ERC 9 was estimated from tissue distribution data in mice.
# Male Balb/c mice were injected via the tail vein with I-125 ERC 9 (20 μg, 0.01 MBq, in 0.1 ml). At specific time periods from 5 minutes to 24 hours after administration, six mice were killed by CO2 asphyxiation. Blood samples were taken and various organs were removed. The radioiodine uptake in various organs and tissues was determined by counting in a gamma spectrometric detector. The amount of radioactivity in each organ or tissue was compared to that in a standard of the injected dose. The percent uptake was calculated for each organ of each animal. The mean percent uptake in the organs was calculated for the animals at each time period.
# The mean uptakes for each of the organs and tissues were plotted versus time on semilogarithmic paper. From these plots, the uptake and clearance half times for each of the organs and tissues were calculated.
# Using these values and the MIRD (Society of Nuclear Medicine) method of dosimetry calculations, the human radiation doses from I-123 were calculated.
# [2] = Toxicity in mice; assay type: in vivo, Balb/c mice
# Description: It was assumed that the maximum human dose of ERC 9 would be 2 mg per 50 kg (or […]) body weight. Mouse studies were done at a rate of 500 times the maximum human dose on a weight basis. Five Balb/c male and five Balb/c female mice were injected via the tail vein with 0,005 ml per gram body weight of a solution of ERC 9 in water (4 mg per ml) on each of three occasions one day apart. The animals were maintained for 30 days.
# [3] = Pancreatic imaging in human volunteers (planar and SPECT gamma camera); assay type: in vivo
# Description: Imaging studies have been done in two human volunteers using I-123 ERC 9.
# I-123 ERC 9 (185 MBq, 2 mg), prepared as in Example 2, was injected intravenously into the two volunteers. Using a gamma camera with SPECT (Single Photon Emission Computed Tomography) capability, planar images were obtained at 30 minutes, 1.5 hours, 3 hours and 24 hours after injection. SPECT images were obtained at 3-4 hours after injection.
# [4] = Pancreas uptake and pancreas to liver ratio in Balb/c mice (radioiodine biodistribution); assay type: in vivo; settings: for P/L (percent dose in pancreas / percent dose in liver) / Pancreas uptake (mean percent administered dose per organ): I-125 label, 20 μg i.v., male Balb/c mice, mean ± standard deviation; for pancreas/liver ratios compared with HIPDM: all time periods from 30 minutes to 24 hours
# Description: The pancreatic uptake and pancreas/liver ratio of I-125 ERC 9 (prepared as in Examples 1 and 2) and I-125-HIPDM were compared in mice. Male Balb/c mice were injected via the tail vein with I-125 ERC 9 or I-125 HIPDM (20 μg, 0.01 MBq, in 0.1 ml). At specific time periods from 5 minutes to 24 hours after administration, six mice from each group were killed by CO2 asphyxiation. Blood samples were taken and various organs (including the pancreas and liver) were removed. The radioiodine uptake in various organs was determined by counting in a gamma spectrometric detector. The amount of radioactivity in each organ or tissue was compared to that in a standard of the injected dose. The percent uptake was calculated for each organ of each animal. The pancreas to liver ratio was calculated by dividing the percent uptake in the pancreas by the percent uptake in the liver. The mean uptake in the organs and the mean pancreas/liver ratio was calculated for the animals at each time period.
# The pancreatic uptake and pancreas/liver ratios of I-125 ERC 46 and I-125 HIPDM were compared in Balb/c mice as described in Example 6.
# The pancreas uptake and pancreas/liver ratios of I-125 ERC 90 and I-125 HIPDM were compared in Balb/c mice as described in Example 6.
# The pancreas uptakes and pancreas/liver ratios of I-125 ERC 94 and I-125 HIPDM were compared in Balb/c mice as described in Example 6.
# [5] = cited from earlier work
# [6] = rats and mice; Yamamoto et al.; cited from earlier work
# [7] = cited from earlier work; remark: listed apart in the source
# [8] = 500 times maximum human dose, i.v., three occasions one day apart, maintained 30 days
# [9] = I-123 ERC 9, 185 MBq, 2 mg i.v.
# [10] = planar and SPECT images, 3-4 hours
# [11] = 30 minutes after administration
# [12] = 4 and 24 hours after administration
# [13] = human clinical studies, Yamamoto et al.
SMILES,P/L (percent dose in pancreas / percent dose in liver) ([4]; 5 minutes after administration),Pancreas uptake (mean percent administered dose per organ) ([4]; 5 minutes after administration),"P/L (percent dose in pancreas / percent dose in liver) [4, 11]","Pancreas uptake (mean percent administered dose per organ) [4, 11]",P/L (percent dose in pancreas / percent dose in liver) ([4]; 1 hour after administration),Pancreas uptake (mean percent administered dose per organ) ([4]; 1 hour after administration),P/L (percent dose in pancreas / percent dose in liver) ([4]; 4 hours after administration),Pancreas uptake (mean percent administered dose per organ) ([4]; 4 hours after administration),P/L (percent dose in pancreas / percent dose in liver) ([4]; 24 hours after administration),Pancreas uptake (mean percent administered dose per organ) ([4]; 24 hours after administration),"pancreas uptake compared with HIPDM [4, 12]",pancreas/liver ratios compared with HIPDM [4],pancreas uptake compared with HIPDM ([4]; early time periods),other results
"Cc1cc([125I])cc(CN(C)CCCN2CCOCC2)c1O [ERC 9, N[3(4-morpholino)propyl]-N-methyl-2-hydroxy-3-methyl-5-iodobenzylamine]",0.40 ± 0.10,2.08 ± 0.90 percent administered dose per organ,0.61 ± 0.05,4.52 ± 0.75 percent administered dose per organ,0.66 ± 0.14,4.79 ± 0.70 percent administered dose per organ,2.02 ± 0.67,6.60 ± 1.84 percent administered dose per organ,2.54 ± 0.34,3.30 ± 0.53 percent administered dose per organ,–,–,–,"human radiation dose to the pancreas [1]: approximately 15.5 mGy per 111 MBq; histological examination of various organs and tissues [2, 8]: no changes that could be attributed to chemical toxicity; immediate or delayed toxicity [2, 8]: no indication of immediate or delayed toxicity; chemical toxicity ([2]; animal studies): low chemical toxicity; visualization of the pancreas ([3]; 24 hours after injection): less than optimal although still present; quality of pancreatic images ([3]; FIGS. 2 and 3, human volunteers): High quality pancreatic images; time at which uptake of the radiotracer was seen [3, 9]: ≤ 30 min; time of optimum pancreatic uptake and pancreas/liver ratio [3, 9]: 3 to 4 h; accumulation of radiolabel in pancreas [3, 10]: high degree of accumulation of radiolabel in normal human pancreas; discrimination of pancreas from other abdominal organs [3, 10]: good discrimination of pancreas from other abdominal organs; mean pancreas/liver ratio compared with HIPDM ([4]; at all time intervals): greater than that for HIPDM"
"Cc1cc([125I])cc(CN(C)CCCN2CCCC2)c1O [ERC 46, N[3(1-Pyrrolidino)propyl]-N-methyl-2-hydroxy-3-methyl-5-iodobenzylamine]",0.22 ± 0.04,1.34 ± 0.32 percent administered dose per,0.54 ± 0.09,4.14 ± 0.68 percent administered dose per,0.78 ± 0.20,3.74 ± 0.69 percent administered dose per,2.11 ± 0.32,5.95 ± 0.78 percent administered dose per,7.47 ± 1.40,4.91 ± 0.43 percent administered dose per,higher pancreas uptake than did HIPDM,significantly higher,lower,–
"Cc1cc([125I])cc(CN(C)CCCN2CCCCC2)c1O [ERC 90, N[3(1-piperidino)propyl]-N-methyl-2-hydroxy-3-methyl-5-iodobenzylamine]",0.22 ± 0.04,1.32 ± 0.34 percent administered dose per,0.50 ± 0.11,2.73 ± 0.59 percent administered dose per,0.80 ± 0.18,3.62 ± 0.84 percent administered dose per,2.12 ± 0.35,5.35 ± 0.88 percent administered dose per,6.70 ± 1.42,5.59 ± 0.60 percent administered dose per,higher pancreas uptakes than did HIPDM,significantly higher,lower,–
"CCN(CC)CCCN(C)Cc1cc([125I])cc(C)c1O [ERC 94, N[3(diethylamino)propyl]-N-methyl-2-hydroxy-3-methyl-5-iodobenzylamine]",0.22 ± 0.04,1.56 ± 0.26 percent administered dose per,0.61 ± 0.06,2.86 ± 0.48 percent administered dose per,0.67 ± 0.19,3.45 ± 0.90 percent administered dose per,1.61 ± 0.26,4.65 ± 0.67 percent administered dose per,4.03 ± 1.76,3.76 ± 1.62 percent administered dose per,–,significantly higher,–,pancreas uptakes compared with HIPDM ([4]; all time periods studied except 24 hours): lower than those of HIPDM
"Cc1cc([125I])cc(CN(C)CCCN(C)C)c1O [HIPDM, N,N,N'-trimethyl-N'[2-hydroxy-3-methyl-5-iodobenzyl]-1,3-propanediamine, reference compound]",0.21 ± 0.03,–,0.32 ± 0.04,–,0.46 ± 0.06,–,0.95 ± 0.14,–,1.18 ± 0.47,–,–,–,–,"differentiation between pancreatic and liver retention [5, 13]: difficult; pancreas/liver ratios [5, 13]: not optimal for clinical use; suitability for clinical use ([5]; human): unsatisfactory for clinical use; localisation in the pancreas [6]: some localisation of HIPDM in the pancreas"
C[75Se]CCC(N)C(=O)O (stereo not shown) [Se-75 selenomethionine],–,–,–,–,–,–,–,–,–,–,–,–,–,pancreatic visualisation ([7]; in vivo): inconsistency of pancreatic visualisation; patient radiation dose ([7]; selenium-75): high patient radiation dose
